Measurements published in PubChem BioAssay AID1963850 (Molecular Pharmacology Branch, DTP, NCI, 2024).

System: 192522-019-R-J2-PDC complex tumor spheroid viability
Test: Anticancer human tumor 192522-019-R-J2-PDC patient-derived colon adenocarcinoma cell line growth inhibition [POLQ]
Details: for IC50: curve of first compound; for viability, T/C: stronger effect = lower value
Outline: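 Patient-derived tumour cells were co-cultured with HUVEC and mesenchymal stem cells as multicellular spheroids at 37 °C. They were treated with POLQ inhibitors (novobiocin, ART-558, RP6685) alone or combined with other agents. Top concentrations were at or near clinical Cmax (otherwise 10 microM; SN-38 at 1 microM), decreasing in half-log steps.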
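Note: spheroids exposed to drugs for seven days before reading.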
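Throughout, for viability, T/C: 100% = DMSO vehicle control viability in luminescence.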

**Q.** How did the IC50 (second compound 0.0316 µM) turn out when CC1COCCN1c1cc(C2(O)CC3CCC(C2)O3)c2cnn(-c3ccn[nH]3)c2n1 (configuration not stated) + Nc1ccc(C#CCN(C(=O)Cc2ncc(C(F)(F)F)cc2C(F)(F)F)c2ccc(F)cc2)nn1 was run?
**A.** Its IC50 is 259 nM.

**Q.** What about the IC50 (second compound 0.1 µM) of the same compound?
**A.** The IC50 was 265 nM.

**Q.** And the IC50 (second compound 0.316 µM)?
**A.** The IC50 was 263 nM.

**Q.** And the IC50 (second compound 1 µM)?
**A.** Its IC50 is 276 nM.

**Q.** And the IC50 (second compound 3.16 µM)?
**A.** The IC50 was 331 nM.

**Q.** What about the IC50 (second compound 10 µM) of the same compound?
**A.** The IC50 was 284 nM.

**Q.** What about the viability, T/C (second compound 0.0316 µM, first compound 0.0316 µM) of the same compound?
**A.** The viability, T/C was 95.5%.

**Q.** What about the viability, T/C (second compound 0.0316 µM, first compound 0.1 µM) of the same compound?
**A.** Its viability, T/C is 76.8%.

**Q.** What about the viability, T/C (second compound 0.0316 µM, first compound 0.316 µM) of the same compound?
**A.** Its viability, T/C is 44.7%.

**Q.** What about the viability, T/C (second compound 0.0316 µM, first compound 1 µM) of the same compound?
**A.** Its viability, T/C is 34.4%.

**Q.** What about the viability, T/C (second compound 0.0316 µM, first compound 3.16 µM) of the same compound?
**A.** The viability, T/C was 44%.

**Q.** And the viability, T/C (second compound 0.0316 µM, first compound 10 µM)?
**A.** Its viability, T/C is 50.1%.

**Q.** What about the viability, T/C (second compound 0.1 µM, first compound 0.0316 µM) of the same compound?
**A.** The viability, T/C was 99.2%.

**Q.** And the viability, T/C (second compound 0.1 µM, first compound 0.1 µM)?
**A.** Its viability, T/C is 85.3%.

**Q.** And the viability, T/C (second compound 0.1 µM, first compound 0.316 µM)?
**A.** Its viability, T/C is 42.2%.

**Q.** And the viability, T/C (second compound 0.1 µM, first compound 1 µM)?
**A.** The viability, T/C was 37.6%.

**Q.** And the viability, T/C (second compound 0.1 µM, first compound 3.16 µM)?
**A.** Its viability, T/C is 41.3%.

**Q.** What about the viability, T/C (second compound 0.1 µM, first compound 10 µM) of the same compound?
**A.** Its viability, T/C is 53%.

**Q.** And the viability, T/C (second compound 0.316 µM, first compound 0.0316 µM)?
**A.** The viability, T/C was 97.2%.

**Q.** And the viability, T/C (second compound 0.316 µM, first compound 0.1 µM)?
**A.** The viability, T/C was 80.5%.

**Q.** And the viability, T/C (second compound 0.316 µM, first compound 0.316 µM)?
**A.** Its viability, T/C is 44.3%.

**Q.** And the viability, T/C (second compound 0.316 µM, first compound 1 µM)?
**A.** Its viability, T/C is 35.8%.

**Q.** And the viability, T/C (second compound 0.316 µM, first compound 3.16 µM)?
**A.** Its viability, T/C is 44.7%.

**Q.** And the viability, T/C (second compound 0.316 µM, first compound 10 µM)?
**A.** The viability, T/C was 48.6%.

**Q.** What about the viability, T/C (second compound 1 µM, first compound 0.0316 µM) of the same compound?
**A.** The viability, T/C was 97.1%.

**Q.** And the viability, T/C (second compound 1 µM, first compound 0.1 µM)?
**A.** Its viability, T/C is 81.8%.

**Q.** And the viability, T/C (second compound 1 µM, first compound 0.316 µM)?
**A.** The viability, T/C was 45.9%.

**Q.** And the viability, T/C (second compound 1 µM, first compound 1 µM)?
**A.** The viability, T/C was 36.9%.

**Q.** What about the viability, T/C (second compound 1 µM, first compound 3.16 µM) of the same compound?
**A.** Its viability, T/C is 45.1%.

**Q.** What about the viability, T/C (second compound 1 µM, first compound 10 µM) of the same compound?
**A.** The viability, T/C was 51.8%.

**Q.** And the viability, T/C (second compound 3.16 µM, first compound 0.0316 µM)?
**A.** The viability, T/C was 97.6%.

**Q.** What about the viability, T/C (second compound 3.16 µM, first compound 0.1 µM) of the same compound?
**A.** The viability, T/C was 82.3%.

**Q.** And the viability, T/C (second compound 3.16 µM, first compound 0.316 µM)?
**A.** Its viability, T/C is 51.2%.

**Q.** And the viability, T/C (second compound 3.16 µM, first compound 1 µM)?
**A.** Its viability, T/C is 36.6%.

**Q.** And the viability, T/C (second compound 3.16 µM, first compound 3.16 µM)?
**A.** The viability, T/C was 46.6%.

**Q.** What about the viability, T/C (second compound 3.16 µM, first compound 10 µM) of the same compound?
**A.** The viability, T/C was 49.6%.

**Q.** What about the viability, T/C (second compound 10 µM, first compound 0.0316 µM) of the same compound?
**A.** The viability, T/C was 92.4%.

**Q.** And the viability, T/C (second compound 10 µM, first compound 0.1 µM)?
**A.** Its viability, T/C is 74.8%.

**Q.** And the viability, T/C (second compound 10 µM, first compound 0.316 µM)?
**A.** The viability, T/C was 47.8%.

**Q.** And the viability, T/C (second compound 10 µM, first compound 1 µM)?
**A.** Its viability, T/C is 36.4%.

**Q.** What about the viability, T/C (second compound 10 µM, first compound 3.16 µM) of the same compound?
**A.** The viability, T/C was 51.9%.

**Q.** And the viability, T/C (second compound 10 µM, first compound 10 µM)?
**A.** The viability, T/C was 50%.
